Entries after “also recorded” stand apart in the source; their conditions may differ.
Experiments:
[1] = Non-tumor death, TMZ vs. mKD/NP; type: in vivo, mouse; settings: TMZ 20 mg/kg three times/week; mKD/NP diet; vs untreated controls
Description: FIG. 5: Non-Tumor Death—TMZ vs. mKD/NP. Mortality rate unrelated to tumor was monitored during the course of treatments.

[2] = Body weight, TMZ vs. mKD/NP; settings: after 4 days of treatment, TMZ 20 mg/kg
Experimental: FIG. 6: Body weight—TMZ vs. mKD/NP. Toxicity/safety of mKD/NP was compared to standard of care (TMZ, 20 mg/kg) by monitoring body weight after 4 days of treatment.
The first line chemotherapy for high grade gliomas is temozolomide [TMZ], which is an oral alkylating agent that damages DNA and triggers cell death. While TMZ is an effective chemotherapy agent it also has significant toxicity. Using the same subcutaneous model as noted in example 2, at the time of tumor presentation animals were randomly assigned to one of three groups: [1] control diet, no treatment; [2] control diet, SOC [TMZ, 20 mg/kg three times/week]; [3] mKD/NP diet.

[3] = system: high-grade gliomas such as GB; settings: GB patients; cited from earlier work
[4] = system: Primary human GBM stem cell lines; experiment: NP in vitro fold expansion of hGB cells; type: cell-based; settings: EGCG 8 μM, Curcumin 0.5 μM, sulforaphane 2.5 μM or all three; daily for 4 out of 5 days; vs control
Experimental: Cells were passed after 5-7 days and cell counts were performed. […] Micrographs show cultures after 4 days of exposure to the different treatments.
Patient derived hGB cells were cultured under defined conditions using established protocols that allow the tumor cells to retain both their phenotypic and genotypic properties in vitro. hGB cell lines were treated with the following NPs:

[5] = system: Patient derived hGB cells; experiment: Serial passage of hGB cells, growth and CSC expansion rate (Kll); type: cell-based, human; settings: 5 passages; EGCG 8 μM, curcumin 0.5 μM, SFN 2.5 μM or combination; vs control
Experimental: FIG. 10A) Patient derived hGB cells were serially passed in culture for 5 passages under a variety of treatment conditions. […] Human GB cells were cultured in the neurosphere assay over 5 passages during which CSC expansion rate was evaluated.
In a second experiment [FIG. 10], patient derived hGB cells were serially passed in culture while being treated with the following NPs:
[4] A combination of all three NPs

[6] = system: Primary human GB stem cell lines; experiment: Daily fold expansion, NP and TMZ in vitro; type: cell-based; settings: in combination with TMZ; EGCG 8 μM, Curcumin 0.5 μM, SFN 2.5 μM or all three
Experimental: FIG. 11: Daily fold expansion—Effect of NP and TMZ in vitro. Primary human GB stem cell lines were treated daily for 4 out of 5 days in culture TMZ alone or in combination with EGCG (8 μM), Curcumin (0.5 μM), sulforaphane (2.5 μM) or a combination of all three (NP). Cells were passed after 5-7 days and cell counts performed. […] The stars (*) are compared to control, # to TMZ alone and $ to the different combinations of TMZ with each of the individual natural products. 1 symbol, p<0.05, 3 symbols, p<0.001, 1-way ANOVA.
Standard of care [SOC] for many solid tissue cancers involves the use of chemotherapy, which for many advanced or high grade tumors provides marginal benefit. Patient derived hGB cells were grown in culture and treated daily with the conventional drug temozolomide [TMZ, 20 μM] only or in combination with the following NPs:
[4] a combination of all three NPs
After 5-7 days in culture cells were counted and the mean daily fold expansion calculated.

[7] = system: hNSC; experiment: hNSC viability, MTT assay after neurosphere culture; type: cell-based, human; settings: 14 days culture, daily treatment; EGCG 8 μM, Curcumin 0.5 μM, SFN 2.5 μM or all three
Experimental: FIG. 33B) hNSC were plated at 20K cells per 100 ul of medium and cultured in the neurosphere assay for 14 days. […] After 14 days in culture, MTT assay was performed to measure cell viability.

[8] = system: Colorectal adenocarcinoma cells (HT-29); experiment: NP on colon cancer cells in vitro, cell count; type: cell-based, human; settings: daily EGCG 8 μM, Curcumin 0.5 μM, sulforaphane 2.5 μM or all three; counted when controls confluent
Experimental: Once the control cultures became confluent, a cell count was performed.

[9] = system: Lung carcinoma cells (A549); experiment: NP on lung cancer cells in vitro, cell count; type: cell-based, human; settings: daily EGCG 8 μM, Curcumin 0.5 μM, sulforaphane 2.5 μM or all three; counted when controls confluent
Experimental: Once the control cultures became confluent a cell count was performed.

[10] = system: Human breast cancer cells (ZR751); experiment: NP on breast cancer cell viability, MTT assay; type: cell-based; settings: daily EGCG 8 μM, Curcumin 0.5 μM, SFN 2.5 μM or combination; vs controls
Experimental: Human breast cancer cells (ZR751) were treated daily with EGCG (8 μM), Curcumin (0.5 μM) or SFN (2.5 μM) individually or in combination (NP). Once the control cultures became confluent, cell viability was measured using MTT assay.
Human breast cancer cells [ZR751] grown in culture and treated daily with physiological concentrations of either EGCG (8 μM), Curcumin (0.5 μM) or SFN (2.5 μM) or used in combination (NP).

| Compound | mortality from non-tumor related causes [1] | body weight [2] | body weight ([2]; listed as SOC) | negative side effects [3] | mean daily fold expansion of GB cells [4] | CSC self-renewing symmetric division rate (Kll) [5] | mean daily fold expansion, natural product added to TMZ treatment [6] | cell viability (MTT) [7] | cell number [8] | cell number [9] | cell viability (MTT) [10] |
| --- | --- | --- | --- | --- | --- | --- | --- | --- | --- | --- | --- |
| Cn1nnc2c(C(N)=O)ncn2c1=O [TMZ, temozolomide] | increase in mortality compared to the untreated controls | significant loss of body weight compared to control and mKD/NP | significantly reduced | nausea, vomiting and hematological toxicity | – | – | – | – | – | – | – |
| epigallocatechin-3-gallate [EGCG] | – | – | – | – | significant reduction in mean daily fold expansion | Only SFN or NP treated groups demonstrated significant decrease | enhanced this effect; also recorded: significant reduction in the mean daily fold expansion of hGB cells compared to control | did not show any effect on the viability of hNSCs | significant reduction in cell number | do not show a statistically significant effect in reducing cell numbers | no statistically significant effect on reducing the number of breast cancer cells; also recorded: none of the natural product showed statistically significant effect compared to controls |
| COc1cc(/C=C/C(=O)CC(=O)/C=C/c2ccc(O)c(OC)c2)ccc1O [Curcumin, curcumin] | – | – | – | – | significant reduction in mean daily fold expansion | Only SFN or NP treated groups demonstrated significant decrease | significant reduction in the mean daily fold expansion of hGB cells compared to control | did not show any effect on the viability of hNSCs | significant reduction in cell number | do not show a statistically significant effect in reducing cell numbers | no statistically significant effect on reducing the number of breast cancer cells; also recorded: none of the natural product showed statistically significant effect compared to controls |
| C[S+]([O-])CCCCN=C=S (stereo not drawn) [SFN, sulforaphane] | – | – | – | – | significant reduction in mean daily fold expansion | significant decrease of CSCs self-renewing symmetric division rate compared to control | enhanced this effect, with SFN demonstrating the greatest effect; also recorded: significant reduction in the mean daily fold expansion of hGB cells compared to control | did not show any effect on the viability of hNSCs | significant reduction in cell number | – | no statistically significant effect on reducing the number of breast cancer cells; also recorded: none of the natural product showed statistically significant effect compared to controls |

Source: US11666549B2, “Regulation of cancer using natural compounds and/or diet” (UNIVERSITY OF FLORIDA RESEARCH FOUNDATION, INC., priority 2013, dated 2023)
